For assay [1], the system named is Cys residues in mouse T cells. The assay is described as follows: isoTOP-ABPP of DMF-treated mouse T cells. The conditions noted are these: 50 μM, 4 h. In kind it is cell-based. As to the method:
Spleens were harvested from female mice, perfused with collagenase, and incubated at 37° C. with 5% CO2 for 30 min. After this time, the spleens were homogenized. Cells that passed through a 100 μm cell strainer were collected and washed with RPMI. T cells were isolated from the splenocytes using the EasySep™ Mouse T cell Isolation Kit (19851; […]) according to manufacturer's instructions. Cells were lysed by sonication and diluted to a concentration of 2 mg protein/mL. […] Site-specific engagement of electrophilic compounds was assessed by blockade of IA-alkyne probe labeling. […] Overlapping peptides with the same labeled cysteine (for example, same local sequence around the labeled cysteines but different charge states, MudPIT segment numbers, or tryptic termini) were grouped together, and the median ratio from each group was recorded as the R value of the peptide for that run.

Assay [2] addresses T1, PKCθ-CD28 interaction (Mus musculus, UniProt Q02111).
T1 construct: endogenous in cells; host or cells: peripheral CD4+ T cells from C57BL/6 mice
The assay is described as follows: PKCθ immunoprecipitation with CD28 and immunoblot. In kind it is cell-based. The conditions noted are these: 50 μM, mouse T cells. The text has this:
FIG. 32A-FIG. 32G exemplify DMF-sensitive C14/C17 residues in PKCθ are important for CD28 interactions and T cell activation. FIG. 32A illustrates representative MS1 profiles for DMF-sensitive (C14/C17) and -insensitive (C322) Cys residues in PKCθ. FIG. 32B exemplifies sequence conservation analysis of human and mouse PKCθ, human PKCδ, and human PKCε (SEQ ID NOS 865-868, respectively, in order of appearance). Shown in red are C14 and C17. FIG. 32C illustrates location of DMF-sensitive C14 and C17 residues in the C2 domain of PKCθ (PDB accession number 2ENJ). […] Immunoprecipitations (IPs) were performed in the cell lysates with anti-CD28 or control IgG antibodies and IPs blotted for CD28 or PKCθ. FIG. 32E illustrates Co-IP of WT PKCθ and the C14S/C17S (2CS) PKCθ mutant with CD28. PKCθ(−/−) T cells were reconstituted with empty vector (EV), WT PKCθ, or the 2CS PKCθ mutant. FIG. 32F and FIG. 32 G illustrate PKCθ(−/−) T cells reconstituted with WT or 2CS PKCθ were assayed for activation potential by measuring CD25 expression (FIG. 32F) and IL-2 (FIG. 32G). For FIG. 32E-FIG. 32G, PKCθ(−/−) T cell cultures were pre-activated with plate-coated anti-CD3+anti-CD28 for 24 h before retroviral transduction with empty vector, WT PKCθ, or the 2CS PKCθ mutant. […]

Assay [3] has as its target MKI67 C903 (P46013) (Homo sapiens, UniProt P46013). Kind of assay: Competitive isoTOP-ABPP in situ. In kind it is cell-based. Conditions: fragment 2 at 200 μM, MDA-MB-231 cells.
Assay [4] concerns the target T2, MLTK (ZAK) C22 (Homo sapiens, UniProt Q9NYL2).
T2 construct: expressed in transfected cells
The assay is described as follows: Blockade of ibrutinib-derived probe 59 labeling of MLTK (gel-based ABPP). In kind it is binding. As to the method: CuAAC was performed with 20 μM rhodamine-azide (50× stock in DMSO), 1 mM tris(2-carboxyethyl)phosphine hydrochloride (TCEP; fresh 50× stock in water, final concentration=1 mM), ligand (17× stock in DMSO:t-butanol 1:4, final concentration=100 μM) and 1 mM CuSO4 (50× stock in water, final concentration=1 mM). […] Quenched reactions were analyzed by SDS-PAGE and visualized by in-gel fluorescence. […] For MLTK, HEK 293T cells stably overexpressing MTLK^2 were treated with the indicated fragment electrophiles for 1 h, followed by labeling with 59 (1 μl, of 125 μM, final concentration=5 μM) for 1 h. These were followed by CuAAC conjugation to rhodamine-azide and evaluation by SDS-PAGE as described above.

In assay [5] the target is T3, IDH1 (Homo sapiens, UniProt O75874).
T3 construct: Full length cDNAs encoding for IDH1 (Open Biosystems, Clone ID: 3880331) and IMPDH2; His6 (C); made in house; host or cells: E. coli BL21(DE3)
T3 sequence (O75874 whole entry): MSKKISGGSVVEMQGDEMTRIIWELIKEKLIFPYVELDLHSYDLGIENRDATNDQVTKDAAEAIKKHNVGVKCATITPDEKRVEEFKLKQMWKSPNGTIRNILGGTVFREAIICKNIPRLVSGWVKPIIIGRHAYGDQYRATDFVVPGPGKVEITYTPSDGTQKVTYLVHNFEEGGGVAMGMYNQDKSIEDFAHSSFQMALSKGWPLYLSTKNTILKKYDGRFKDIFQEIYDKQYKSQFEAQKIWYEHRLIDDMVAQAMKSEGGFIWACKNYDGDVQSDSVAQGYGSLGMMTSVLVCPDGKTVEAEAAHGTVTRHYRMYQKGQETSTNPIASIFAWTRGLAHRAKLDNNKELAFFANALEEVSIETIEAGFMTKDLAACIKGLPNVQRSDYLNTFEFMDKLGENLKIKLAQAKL
Kind of assay: IDH1 NADP assay. The format is biochemical. As to the method:
To 25 μL of this mixture was added 1 μL of the indicated compound (25× stock solution in DMSO) and the lysates were incubated for 1 h at room temperature in clear 96 well plates (Corning® Costar®). […] Absorbance was measured for 45 minutes and the relative activities were calculated from the change in absorbance for the linear portion of the curve.

The target in assay [6] is O00541_C272 (Homo sapiens, UniProt O00541). Kind of assay: Competitive isoTOP-ABPP, cell lysates. The format is binding. The conditions noted are these: 500 μm, in-vitro_ramos.
Sequence of O00541_C272 (O00541 whole entry, looked up): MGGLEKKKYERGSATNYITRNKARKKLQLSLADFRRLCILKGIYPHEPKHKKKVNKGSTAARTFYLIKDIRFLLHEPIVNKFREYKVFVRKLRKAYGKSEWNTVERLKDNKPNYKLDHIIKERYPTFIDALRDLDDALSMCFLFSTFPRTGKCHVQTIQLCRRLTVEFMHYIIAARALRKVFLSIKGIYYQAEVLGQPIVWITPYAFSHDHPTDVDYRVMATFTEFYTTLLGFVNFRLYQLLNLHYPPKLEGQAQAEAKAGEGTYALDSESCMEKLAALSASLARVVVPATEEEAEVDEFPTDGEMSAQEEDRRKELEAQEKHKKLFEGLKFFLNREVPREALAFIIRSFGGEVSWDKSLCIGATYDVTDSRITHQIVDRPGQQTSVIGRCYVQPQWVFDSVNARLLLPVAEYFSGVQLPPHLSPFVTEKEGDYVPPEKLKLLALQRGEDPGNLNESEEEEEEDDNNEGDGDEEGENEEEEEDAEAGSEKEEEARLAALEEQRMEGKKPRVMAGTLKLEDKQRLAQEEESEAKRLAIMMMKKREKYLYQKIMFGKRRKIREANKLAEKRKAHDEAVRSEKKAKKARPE

Molecules are shown by their SMILES. Where a name gives a salt, the structure may show the parent alone.

T2 sequence (Q9NYL2 whole entry): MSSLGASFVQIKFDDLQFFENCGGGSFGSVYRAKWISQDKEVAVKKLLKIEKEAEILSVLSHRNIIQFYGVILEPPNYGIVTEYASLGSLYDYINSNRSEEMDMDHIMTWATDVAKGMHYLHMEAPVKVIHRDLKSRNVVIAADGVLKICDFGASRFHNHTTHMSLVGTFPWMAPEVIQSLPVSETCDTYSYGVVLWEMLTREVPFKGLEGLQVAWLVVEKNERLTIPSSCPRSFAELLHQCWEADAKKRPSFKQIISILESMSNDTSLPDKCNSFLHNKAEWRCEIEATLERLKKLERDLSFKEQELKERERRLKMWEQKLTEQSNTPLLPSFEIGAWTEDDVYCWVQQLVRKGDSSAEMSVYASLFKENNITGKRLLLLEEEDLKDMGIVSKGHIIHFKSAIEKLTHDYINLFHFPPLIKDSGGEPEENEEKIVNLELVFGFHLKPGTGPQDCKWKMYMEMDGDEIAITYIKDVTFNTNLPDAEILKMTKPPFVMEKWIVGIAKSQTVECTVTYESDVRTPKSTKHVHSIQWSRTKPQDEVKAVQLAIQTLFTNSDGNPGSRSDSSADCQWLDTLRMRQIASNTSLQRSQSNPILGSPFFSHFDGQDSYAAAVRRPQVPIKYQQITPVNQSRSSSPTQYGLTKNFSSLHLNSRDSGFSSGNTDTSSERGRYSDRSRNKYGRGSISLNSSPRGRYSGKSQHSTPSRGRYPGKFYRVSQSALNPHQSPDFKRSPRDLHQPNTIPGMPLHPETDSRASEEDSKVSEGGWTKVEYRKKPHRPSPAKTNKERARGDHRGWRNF
T1 sequence (Q02111 whole entry): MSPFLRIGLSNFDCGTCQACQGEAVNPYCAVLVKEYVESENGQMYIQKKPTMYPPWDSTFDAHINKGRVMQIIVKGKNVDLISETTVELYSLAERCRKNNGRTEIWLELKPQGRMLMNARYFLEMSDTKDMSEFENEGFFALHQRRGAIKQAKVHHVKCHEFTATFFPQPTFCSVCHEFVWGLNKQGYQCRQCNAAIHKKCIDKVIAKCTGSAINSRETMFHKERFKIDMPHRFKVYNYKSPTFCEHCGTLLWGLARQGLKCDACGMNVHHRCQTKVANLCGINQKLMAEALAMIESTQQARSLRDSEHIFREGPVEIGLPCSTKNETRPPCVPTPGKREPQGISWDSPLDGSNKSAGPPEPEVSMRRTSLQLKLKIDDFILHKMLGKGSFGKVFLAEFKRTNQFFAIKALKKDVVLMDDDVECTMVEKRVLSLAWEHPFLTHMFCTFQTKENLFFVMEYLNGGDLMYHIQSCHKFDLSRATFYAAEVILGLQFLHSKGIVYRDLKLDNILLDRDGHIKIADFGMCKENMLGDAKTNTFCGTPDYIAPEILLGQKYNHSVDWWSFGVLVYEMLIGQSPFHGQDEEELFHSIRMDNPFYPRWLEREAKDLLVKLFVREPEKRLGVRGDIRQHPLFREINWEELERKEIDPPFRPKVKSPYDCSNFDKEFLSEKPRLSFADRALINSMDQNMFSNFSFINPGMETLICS

Regarding `COC(=O)/C=C/C(=O)OC` [DMF, dimethyl fumarate], the “fraction of conserved, quantified DMF-sensitive Cys also blocked (R >4) in mouse T cells” value in assay [1] is listed as more than 80%. The “interaction between PKCθ and CD28” value in assay [2] is “blocked”.
`COc1ccc2c(c1)CCCN2C(=O)CCl` [compound 2]: in assay [3], the “isoTOP-ABPP reactivity profile (ratio) 2_200 μM_in-situ_231” value was found to be 20.0.
`O=C(CCl)Nc1cc(C(F)(F)F)cc(C(F)(F)F)c1` [compound 3]: the “blockade of probe 59 labeling of MLTK (in words)” value in assay [4] is “inactive”.
As to `O=C(CCl)N1CCC(C(O)(c2ccccc2)c2ccccc2)CC1` [compound 20], in assay [5], the “catalytic activity of WT-IDH1 (NADP+ to NADPH)” value is recorded as “blocked in a concentration-dependent manner”.
As to `N#CC(=Cc1ccc(-c2ccccc2Cl)o1)C(N)=O` [compound 42], in assay [6], the “isoTOP-ABPP reactivity profile ratio, O00541_C272” value was 0.9.

For the origin of these results see patent publication US10670605B2, “Cysteine reactive probes and uses thereof” (The Scripps Research Institute, priority 2015, dated 2020).
